Measurements published in paper PMC10034064, “Expanding the apelin receptor pharmacological toolbox using novel fluorescent ligands” (Frontiers in Endocrinology, 2023).
Bridge positions count the residues as written; N and C are the ends. Peptide text beside a SMILES is read from it.

How the values were obtained:
apelin receptor [1] = target: T1, apelin receptor (Homo sapiens, UniProt P35414); test: Fluorescent ligand binding (saturation, specificity, competition) in CHO-APLNR cells by high content imaging; set-up: host or cells: CHO-K1
T1 sequence (P35414 1-380): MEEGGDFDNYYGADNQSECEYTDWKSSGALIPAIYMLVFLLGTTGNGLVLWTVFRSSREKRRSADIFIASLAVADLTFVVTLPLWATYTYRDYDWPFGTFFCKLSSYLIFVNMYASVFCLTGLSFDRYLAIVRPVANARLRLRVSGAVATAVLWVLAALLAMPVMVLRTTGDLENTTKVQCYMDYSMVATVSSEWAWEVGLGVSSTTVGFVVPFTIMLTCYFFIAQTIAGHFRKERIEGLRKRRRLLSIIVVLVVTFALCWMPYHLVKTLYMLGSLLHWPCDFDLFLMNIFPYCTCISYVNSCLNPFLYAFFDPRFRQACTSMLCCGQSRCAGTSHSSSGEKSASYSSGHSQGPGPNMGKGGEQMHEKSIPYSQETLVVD
Protocol: (§1) Cells were seeded in CellCarrier-96 Ultra Plates at a density of ~10 k/well. […] For time-course experiments, CHO-APLNR were treated with 300 nM of the fluorescent ligand for 0 – 90 mins, in the dark at room temperature. For saturation binding experiments, CHO-APLNR were treated with a concentration range of 1 – 300 nM of the fluorescent ligand for 90 mins, in the dark at room temperature. […] Untransfected CHO-K1 cells were also used as controls. […] At the end-points, CHO-APLNR were washed with HBSS before fixation with 4% formaldehyde. CHO-APLNR were washed with HBSS before treatment with Hoechst 33342 nuclear marker prepared at 10 µg/mL in HBSS for 15 mins. […] The software was also used to calculate binding affinities (Ki values) of competing ligands using the Cheng-Prusoff equation.
(§2) For imaging studies, cells in CellCarrier-96 Ultra Plates (PerkinElmer) were imaged using a 40x/NA1.1 water immersion objective. The device was set to measure an image field within each well, where the field is made up of a 4 x 4 or 5 x 5 grid of imaging regions (where each region is 250 x 250 μm in area). After using Z stacking to find an appropriate focal plane, cells were visualised and imaged at a focal depth of 0.5 μm above the bottom of the plate in all experiments. […]
(§3) Following image acquisition, several cell parameters were quantified using in-built Harmony High Content Imaging and Analysis Software (PerkinElmer). […] Intracellular fluorescence was calculated as fluorescence identified in the membrane collar subtracted from whole cell fluorescence. Mean fluorescence intensities were calculated for membrane and whole cell compartments in observed cells in the selected population, given as fluorescence units provided by Harmony software.

[2] = target: T2, human apelin receptor (AGTRL1) (Homo sapiens, UniProt P35414); test: PathHunter GPCR internalisation assay in U2OS cells; type: cell-based; conditions: U2OS cells overexpressing human apelin receptor, 90 mins, n = 3
T2 construct: host or cells: U2OS
T2 sequence (P35414 1-380): T1 sequence (P35414 1-380)
Protocol: Internalisation of apelin receptor following ligand treatment was determined using an in vitro PathHunter GPCR Internalisation Assay (Eurofins). The manufacturer’s protocol was modified in accordance with previous in-house optimisation. All reagents were provided in the assay kit. U2OS cells overexpressing human apelin receptor (AGTRL1) were seeded in cell plating reagent into 96-well plates and incubated for 48 h at 37°C, 5% CO2, humidified. To test novel fluorescent compounds for agonist activity, wells were treated with test compounds over a concentration range in Cell Plating Reagent to generate an 8-point concentration-response curve. Cells were then incubated for 90 mins at 37°C, 5% CO2, humidified before treatment with Working Detection Solution (Cell Assay Buffer, Substrate Reagent 1, Substrate Reagent 2), and incubation for 2 h at room temperature, protected from light. Plates were read in a chemiluminescence detecting LumiLITE Microplate Reader (DiscoveRx, Fremont, CA, USA). Responses, measured in Relative Light Units (RLU), were fitted to four parameter logistic concentration response curves in GraphPad Prism version 6.07 for Windows (GraphPad Software) to determine compound concentrations inducing half maximal response (EC50), and pD2 values (-log10 EC50) were calculated.

apelin receptor [3] = target: T1, apelin receptor; test: Radioligand competition binding against [125I]-apelin-13 in human left ventricle homogenate; set-up: Surgical samples of human left ventricle (HLV) tissue were obtained with informed consent; from tissue; host or cells: human left ventricle homogenate; conditions: apelin ligands vs [Pyr1]apelin-13; ELA ligands vs ELA-14
Protocol: Surgical samples of human left ventricle (HLV) tissue were obtained with informed consent and ethical approval (05/Q104/142). Tissues were snap frozen in liquid nitrogen before storage at -80°C. On the day of preparation, tissue was chopped finely with a razor blade on ice, before subsequent homogenisation using a Polytron Homogenizer (Thomas Scientific), in homogenisation buffer (50 mM Tris-HCl, 5 mM MgCl2, 5 mM EDTA, 1 mM EGTA, 1:500 protease inhibitor cocktail containing aprotinin and amastatin, balanced at pH 7.4) at 4°C. The resulting homogenate was subsequently spun at 1000 xg for 2 mins at 4°C. Supernatant was transferred to another set of tubes (pellet discarded) for a high speed spin at 40,000 xg, for 30 mins at 4°C. Supernatant was then discarded, and the remaining pellet resuspended in 2.5 mL/g of homogenisation buffer, before a second high speed spin at 40,000 xg, for 30 mins at 4°C. The supernatant was discarded, and the remaining pellet was resuspended in HEPES buffer (50 mM HEPES, balanced at pH 7.4 at room temperature) and stored in the freezer at -70°C until use in assays.
The radiolabel has a specific activity of 2200 Ci/mmol. […]
Total binding was determined in the absence of competing fluorescent ligand. […] Radioactivity in pellets was counted using a Cobra II model 5003 gamma counter (Packard). […]

apelin receptor [4] = target: T1, apelin receptor; test: Dynamic mass redistribution assay in CHO-APLNR cells; type: cell-based; set-up: host or cells: CHO-K1; conditions: maximal change in peak wavelength value from baseline, n = 3
Protocol: Apelin receptor downstream signalling was determined using an in vitro BIND technology dynamic mass redistribution assay (SRU Biosystems). CHO-APLNR cells were seeded in 96-well biosensor plates (SRU Biosystems) at a density of 50K/well, maintained in 95 µL feeding media, and incubated for 24 h at 37°C, 5% CO2, humidified. The following day, the plate was loaded onto the SRU Biosystems BIND PROFILER TURBO reader, and left to acclimatise to room temperature for 20 mins before a baseline read was taken over 10 mins. To test novel fluorescent compounds for agonist activity, cells were treated with test compounds (5 µL additions in PBS) over a concentration range to generate an 8-point concentration-response curve. The biosensor plate was read for a subsequent 60 mins. Responses, measured in maximal change in peak wavelength value from baseline (ΔPWV), were fitted to four parameter logistic concentration response curves in GraphPad Prism version 6.07 for Windows (GraphPad Software) to determine compound concentrations inducing half maximal response (EC50), and pD2 values (-log10 EC50) were calculated.

apelin receptor [5] = target: T1, apelin receptor; test: Fluorescent ligand binding in human kidney tissue sections
Protocol: Frozen human kidney tissue sections (10 µm), were cut using a cryostat onto microscopy slides. […] Slides were washed with HBSS before fixation with 4% formaldehyde for 3 mins.
Automated fluorescent images (16 bit, 0.325 x 0.325 μm scaling per pixel) of fixed and mounted human tissue stained with fluorescent markers were acquired using an Axio Scan Z1 slide scanner (Zeiss) slide scanner with a Plan-Apochromat 20x/NA0.8 M27 objective lens connected to a Hamamatsu Orca Flash camera. An initial brightfield scan was performed to visualise tissue on slides, and a spline contour tool was used to outline the tissue to minimise the total region imaged. A profile with three fluorescent channels was used; a first channel (blue), with an LED-Module 385 nm light source set at 10% intensity and 10 ms exposure time at a depth of focus of 1.45 μm for Hoechst 33342 nuclear marker (405 nm wavelength); a second channel (green), with an LED-Module 475 nm light source set at 80% intensity and 30 ms exposure time at a depth of focus of 1.64 μm for 488 nm wavelengths; and a third channel (yellow/orange), an LED-Module 567 nm light source set at 80% intensity and 30 ms exposure time at a depth of focus of 1.88 μm for 555 nm wavelengths. Focal depths were determined by the slide scanner’s in-built Z stacking autofocusing. All acquired images were saved and visualised using ZEN software (Zeiss) and/or Orbit Image Analysis (ORBIT) software. Regions of interest were identified using the spline contour, and mean fluorescent signal (in grayscales) was provided by ZEN software (Zeiss).

apelin receptor [6] = test: Fluorescent ligand binding (saturation, specificity, competition) in CHO-APLNR cells by high content imaging; conditions: 300 nM apelin647, wild-type CHO-K1 cells without apelin receptor
Protocol: as §1, §2, §3

[7] = 1 µM fluorescent ligand alone, human kidney sections, 30 mins
[8] = 1 µM fluorescent ligand plus 10 µM [Pyr1]apelin-13 (apelin488) or ELA-14 (ELA488)

Question: How did the pKi (apelin receptor [1]) turn out when `CCC(CC)n1c(Cc2cccs2)nc2cc(C(=O)N[C@H](CC(=O)O)CC(C)C)ccc21` [CMF-019] was run?
Answer: 5.91

Question: `CSCC[C@H](NC(=O)[C@H](CS)NC(=O)[C@H](CCCNC(=N)N)NC(=O)[C@H](CCCNC(=N)N)NC(=O)[C@H](CCC(N)=O)NC(=O)CCOCCOCCOCCOCCNC(=O)c1ccc(-c2c3ccc(=N)c(S(=O)(=O)O)c-3oc3c(S(=O)(=O)O)c(N)ccc23)c(C(=O)O)c1)C(=O)N1CCC[C@H]1C(=O)N[C@@H](CC(C)C)C(=O)N[C@@H](Cc1c[nH]cn1)C(=O)N[C@@H](CO)C(=O)N[C@@H](CCCNC(=N)N)C(=O)N[C@H](C(=O)N1CCC[C@H]1C(=O)N[C@@H](Cc1ccccc1)C(=O)N1CCC[C@H]1C(=O)O)C(C)C` [ELA488] was tested. Which Emax [2] did it give?
Answer: 169693 ± 9461 RLU

Question: And the “binding affinity fold lower than the unlabelled endogenous parent ligand” value (apelin receptor [3])?
Answer: ~ 23 fold

Question: And the Emax (apelin receptor [4])?
Answer: 240.32 ± 27.91 ΔPWV

Question: And the “mean fluorescence in renal blood vessels” value (apelin receptor [5]; [7])?
Answer: 18869 ± 5968 grayscales

Question: And the “mean fluorescence in tubular structures of the renal cortex” value (apelin receptor [5]; [7])?
Answer: 7392 ± 1338 grayscales

Question: What about the “mean fluorescence in renal blood vessels in the presence of unlabelled parent ligand” value (apelin receptor [5]; [8]) of the same compound?
Answer: 7946 ± 3656 grayscales

Question: What about the “mean fluorescence in tubular structures of the renal cortex in the presence of unlabelled parent ligand” value (apelin receptor [5]; [8]) of the same compound?
Answer: 2458 ± 801 grayscales

Question: How did the Emax [2] turn out when `CSCC[C@H](NC(=O)[C@H](CS)NC(=O)[C@H](CCCNC(=N)N)NC(=O)[C@H](CCCNC(=N)N)NC(=O)[C@H](CCC(N)=O)NC(=O)CCOCCOCCOCCOCCNC(=O)CCCCCC1(C)C(=CC=CC=CC2=[N+](CCCS(=O)(=O)[O-])c3ccc(S(=O)(=O)O)cc3C2(C)C)N(CCCS(=O)(=O)O)c2ccc(S(=O)(=O)O)cc21)C(=O)N1CCC[C@H]1C(=O)N[C@@H](CC(C)C)C(=O)N[C@@H](Cc1c[nH]cn1)C(=O)N[C@@H](CO)C(=O)N[C@@H](CCCNC(=N)N)C(=O)N[C@H](C(=O)N1CCC[C@H]1C(=O)N[C@@H](Cc1ccccc1)C(=O)N1CCC[C@H]1C(=O)O)C(C)C` (stereo partly shown) [ELA647] was run?
Answer: 128992 ± 6218 RLU

Question: And the “binding affinity fold lower than the unlabelled endogenous parent ligand” value (apelin receptor [3])?
Answer: ~ 58 fold

Question: And the Emax (apelin receptor [4])?
Answer: 185.23 ± 36.82 ΔPWV

Question: `CC(C)C[C@@H]1NC(=O)[C@H](CCCNC(=N)N)NC(=O)[C@@H]2CCCN2C(=O)[C@H](CCCNC(=N)N)NC(=O)[C@@H](NC(=O)[C@H](Cc2c[nH]cn2)NC(=O)[C@H](CCCCN)NC(=O)[C@@H]2CSSC[C@H](N)C(=O)N[C@@H](CCCNC(=N)N)C(=O)N3CCC[C@H]3C(=O)N[C@@H](CCCNC(=N)N)C(=O)N[C@@H](CC(C)C)C(=O)N2)CSSC[C@@H](C(=O)O)NC1=O` [MM54] (H-CRPRLCKHCRPRLC-OH; disulfide 1-6, 9-14) was tested. Which Ki (apelin receptor [1]) did it give?
Answer: 5.75 µM

Question: Which “binding in wild-type CHO-K1 cells” value (apelin receptor [6]) does the source give for `CCCC[C@H](NC(=O)[C@@H]1CCCN1C(=O)CNC(=O)[C@H](CCCCN)NC(=O)[C@H](Cc1c[nH]cn1)NC(=O)[C@H](CO)NC(=O)[C@H](CC(C)C)NC(=O)[C@H](CCCNC(=N)N)NC(=O)[C@@H]1CCCN1C(=O)[C@H](CCCNC(=N)N)NC(=O)[C@H](CCC(N)=O)NC(=O)CCOCCOCCOCCOCCNC(=O)CCCCCC1(C)C(=CC=CC=CC2=[N+](CCCS(=O)(=O)[O-])c3ccc(S(=O)(=O)O)cc3C2(C)C)N(CCCS(=O)(=O)O)c2ccc(S(=O)(=O)O)cc21)C(=O)N1CCC[C@H]1C(=O)N[C@@H](Cc1ccc(OCc2ccccc2)cc1)C(=O)O` (stereo partly shown) [apelin647] here?
Answer: 0.70 ± 0.45 mean fluorescence
